Biological target: T1, endogenous wild-type H-Ras protein (Homo sapiens, UniProt P01112)
T1 construct: an endogenous wild-type K-Ras protein and wild-type H-Ras protein; endogenous in cells; host or cells: HeLa
Assay: Degradation of endogenous wild-type H-Ras protein in HeLa cells, Western blot analysis
Type: cell-based
Details: 48 hours after addition, vs control (DMSO), FIG. 5
Description: In Example 6, degradation (knockdown) of an endogenous wild-type K-Ras protein and wild-type H-Ras protein in HeLa cells to which TUS-007 had been added was evaluated by Western blot analysis.
HeLa cells were seeded in a 24-well plate at a cell density of 8×10^4 cells/well, and then cultured under conditions of 37° C. and 5 vol % CO2 for 16 hours.
After 16 hours from cell seeding, TUS-007 was added to HeLa cells as follows. As a medium, a serum-free medium (37° C.) in which 1 mass % L-glutamine solution (Sigma-Aldrich) was added to D-MEM (high D-glucose, phenol red, sodium pyruvate (Wako Pure Chemical Industries, Ltd.)) was used. It is noted that the L-glutamine solution was added immediately before use. A DMSO solution containing TUS-007 was mixed with the medium so that the concentration of DMSO was 1 vol %, and added to each well at 500 μL/well, and cultured under conditions of 37° C. and 5 vol % CO2. As a control, DMSO was used. […]
After electrophoresis, proteins were transferred to a PVDF membrane (Immobion™-P, Millipore) under conditions of 100 V and 2 hours using a tank-type blotting device and a transfer buffer (25 mM Tris-HCl, 195 mM glycine, 0.01% SDS, 15% methanol). […] Subsequently, the membrane was treated with a chemiluminescence reagent Immobilon™ Western (Millipore), and then chemiluminescence was detected using a lumino image analyzer LAS-3000 (FUJIFILM Corporation). […]

T1 sequence (P01112 whole entry): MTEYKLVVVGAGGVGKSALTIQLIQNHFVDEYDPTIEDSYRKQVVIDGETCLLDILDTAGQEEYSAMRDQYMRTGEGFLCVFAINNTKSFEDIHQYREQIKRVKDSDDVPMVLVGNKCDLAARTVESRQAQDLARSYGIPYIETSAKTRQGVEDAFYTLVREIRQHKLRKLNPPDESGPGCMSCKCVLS

In the case of `CCC(C)[C@H](NC(=O)CCCCCCNC(=O)[C@H](CC(C)C)NC(=O)CNC(=O)c1cc(Cl)ccc1Cl)C(=O)Nc1ccc2[nH]c(Cc3c[nH]c4ccccc34)nc2c1` (stereo in doubt) [TUS-007], the “amount of the endogenous wild-type H-Ras protein (Western blot)” value is reported as “the amount of the endogenous wild-type K-Ras protein and wild-type H-Ras protein was reduced”.

— patent publication US11052154B2, “Ras protein degradation inducing molecule and pharmaceutical composition” (Tokyo University of Science Foundation, priority 2016, dated 2021)
